{"source": "patent US8299031B2", "about": "“Human semen enhancer of viral infection peptides (SEVI) and their use” (Viro Pharmaceuticals GmbH & Co. KG, priority 2006, dated 2012)", "key": {"[1]": {"test_system": "HIV-1 NL4-3", "format": "cell-based", "details": "for luciferase activities increased compared to control cells containing no SEVI: 50 μg/ml peptide; for effect on HIV-1 infection (luciferase activities relative to no peptide): peptides 5 mg/ml shaken 20 h 37 °C, CEMX174 5.25 M7, 30 pg p24 HIV-1 NL4-3, 20 hours", "method": "To analyze the effect of synthesized SEVI peptides on HIV infection, samples were resuspended in FBS free DMEM to yield a stock solution of 5 mg/ml and shacked for 20 h at 37° C. at 1400 rpm (rotations per minute) resulting in a turbid solution.\nAll peptides indicated in FIG. 7B were dissolved and incubated under the same conditions. […] In the presence of 50 μg/ml peptide, luciferase activities were increased about 30 fold compared to those from control cells containing no SEVI (FIG. 7A).\nFIG. 7. Several synthetic PAP fragments stimulate HIV-1 infection. A) Lyophilized peptides were resuspended in DMEM without FBS and incubated for 20 h at 37° C. at 1,400 rpm using a thermo mixer (Eppendorf). […] After 20 h virus infection was detected using the Luciferase assay reagent (Promega). […] B) Shown are the peptide sequences analyzed."}, "[2]": {"test_system": "HIV-1 NL4-3", "assay": "HIV-1 infection rate of CEMX174 5.25 M7 cells (GFP UV microscopy and luciferase)", "format": "cell-based", "details": "CEMX174 5.25 M7, 0.3 ng p24, 2 days", "method": "The rate of virus infection was detected after 2 days by performing first UV microscopy (FIG. 10A) and thereafter by measuring luciferase activities of cell lysates of the same samples (FIG. 10B). […] After infection of control samples containing no peptide, 2.6% of the cells expressed GFP corresponding to luciferase activities of 44,457 RLU/s (FIG. 10). In the presence of 2 μg/ml SEVI the average infection rates were nearly doubled to 4.6% (66,327 RLU/s). At the highest concentration of 50 μg/ml more than 99% of the cells became infected by HIV-1. Median luciferase activities in those samples were 1,701,156 RLU/s, corresponding to a 38 fold increase of infection (1,701,156 RLU/s divided by 44,457 RLU/s of control cells).\nFIG. 10. […] The rate of virus infection was detected after 2 days by performing UV microscopy (A) or by measuring luciferase activity of cellular lysates (B). RLU/s: relative light units per second."}, "[3]": {"test_system": "HIV-1 NL4-3", "assay": "HIV-1 replication in PBMC after low dose infection (p24 antigen ELISA)", "format": "cell-based", "details": "2 μg/ml SEVI"}, "[4]": {"test_system": "HIV-1", "assay": "Preincubation of virus stock with SEVI and 50-fold dilution into cell culture", "format": "cell-based", "details": "diluted 50-fold", "method": "SEVI could bind to viral particles and increase their infectivity, or enhance the susceptibility of target cells to HIV-1 infection. To distinguish between these possibilities, we preincubated the virus stock with various concentrations of fibrilar PAP(248-286) for 5 min in a small volume and subsequently added the virus/SEVI mixture to the cell culture, thereby diluting it 50-fold. For comparison, SEVI was directly added to the cell culture and subsequently infected with the same viral dose. […] In relation to the final peptide concentration in the infected culture, viral infectivity was enhanced by 50-fold (FIG. 17A, right).\n(§1) FIG. 17. SEVI interacts with the HIV-1 particle and enhances its binding to the cell. A) Interaction of SEVI with HIV-1. SEVI was either preincubated with the virus stock in a small volume and subsequently added to the cells (□) or SEVI and the HIV-1 stocks were added separately to the cells (▪). The SEVI concentrations during incubation with the virus stocks are shown in the left panel and the concentrations relating to the total cell culture in the right panels. B) SEVI enhances binding of wildtype and Env-defective viral particles to the cells. u, uninfected cells. Data represent average values±s.d. (n=3)."}, "[5]": {"test_system": "HIV-1 particles", "assay": "Binding of viral particles to TZM-bl cells (cell-associated p24 ELISA)", "format": "cell-based", "details": "3 hs", "method": "To further assess how SEVI might enhance HIV-1 infection we incubated TZM-bl cells for 3 hs with viral particles in the presence or absence of fibrilar PAP(248-286). Thereafter, unbound virus was removed by extensive washing and the amount of cell-associated p24 antigen was determined by ELISA. SEVI increased binding of HIV-1 to the target cells up to 8-fold in a dose-dependent manner (FIG. 17B, left).\nas §1"}, "[6]": {"test_system": "HIV-2 ROD10", "format": "cell-based"}, "[7]": {"test_system": "SIVmac239", "format": "cell-based, SIV", "details": "TZM-bl"}, "[8]": {"test_system": "SIVagm-tan 1", "format": "cell-based, SIV", "details": "TZM-bl"}, "[9]": {"test_system": "SIVcpz-tan 1", "format": "cell-based, SIV", "details": "CEMX174 5.25 M7 cells"}, "[10]": {"test_system": "NL4-3 V3 recombinant viruses and molecular HIV-1 clones", "details": "for infection more efficient than control cells without peptide: 0.4 μg/ml SEVI"}, "[11]": {"test_system": "HIV-1 NL4-3 (X4) and HIV-1 NL4-3 YU-2 (R5)", "assay": "Infection of TZM-bl cells with subinfectious virus doses (Gal Screen)", "format": "cell-based", "details": "2 μg/ml SEVI or more, 0.1 and 0.6 pg p24 of X4 and R5 tropic HIV, 3 days"}, "[12]": {"test_system": "TZM-bl cells", "assay": "MTT cytotoxicity assay", "format": "cell-based", "details": "3 days, high concentrations of SEVI", "method": "The day after medium was replaced by 90 μl of fresh medium and SEVI [fibrilar […]] dilutions were added to a final volume of 100 μl. After 3 days 10 μl of a 5 mg/ml MTT (Sigma; # M2128) solution was added and cells were incubated for 4 h at 37° C. In living cells mitochondrial dehydrogenases […] the yellow MTT salt to blue formazan crystals (Schiff et al.; 1985). After dissolving the crystals in 1:1 Ethanol/DMSO, samples containing living cells appear blue whereas samples from dead cells are clear. Optical density (OD) was measured at 560/650 nm using a photometer (Molecular Devices).\nFIG. 9. SEVI has no effect in cell viability or endogenous LTR activity. […] After 3 days 10 μl of a 5 mg/ml MTT solution was added and cells were incubated for 4 h at 37° C. Thereafter formazan crystals were dissolved in 1:1 Ethanol/DMSO and OD was measured at 560/650 nm. […] B) Endogenous LTR activity: After 3 days incubation with peptides endogenous LTR activity was measured using the Gal Screen Kit. Shown are median β-galactosidase activities±SD derived from 6 samples. RLU/s: relative light units per second."}}, "note": "Read-outs that look alike come from different tables or passages of the source. Ends that are not written are not given here."}
{"sequence": "GIHKQKEKSRLQGGVLVNEILNHMKRATQIPSYKKLIMY (Synthetic fragment of the PAP protein) [PAP(248-286)]", "values": [{"measurement": "luciferase activities increased compared to control cells containing no SEVI", "setting": "[1]", "result": "about 30 fold"}, {"measurement": "effect on HIV-1 infection (luciferase activities relative to no peptide)", "setting": "[1]", "result": "dose dependently enhanced HIV-1 infection"}, {"measurement": "effect on NL4-3 infection", "setting": "[2]", "result": "dose dependently promoted NL4-3 infection"}, {"measurement": "virus replication (p24 antigen ELISA)", "setting": "[3]; PBMC infected with 1.2 and 0.12 pg", "result": "virus only replicated in samples containing SEVI"}, {"measurement": "virus replication (p24 antigen ELISA)", "setting": "[3]; PBMC infected with 120 and 12 pg p24 antigen", "result": "replicated with faster kinetics and to higher levels than in control cells without peptide"}, {"measurement": "viral infectivity enhanced in relation to the final peptide concentration in the infected culture", "setting": "[4]; 5 min preincubation with virus stock", "result": 50, "unit": "fold"}, {"measurement": "effect of diluting the HIV-1/SEVI mixture after preincubation", "setting": "[4]; 5 min preincubation", "result": "did not at all reduce the magnitude of SEVI-mediated infectivity enhancement"}, {"measurement": "binding of HIV-1 particles lacking Env", "setting": "[5]", "result": "enhanced binding of HIV-1 particles lacking Env"}, {"measurement": "increase of binding of HIV-1 to the target cells (cell-associated p24)", "setting": "[5]; wildtype HIV-1, dose-dependent", "result": "up to 8 fold"}, {"measurement": "increase of viral infection", "setting": "[6]; 50 μg/ml SEVI, TZM-bl infected with 2 μl of HIV-2", "result": "two orders of magnitude"}, {"measurement": "effect on infection rates of HIV-2", "setting": "[6]; TZM-bl", "result": "dose dependently enhanced infection rates"}, {"measurement": "effect on SIVmac infection", "setting": "[7]", "result": "favoured"}, {"measurement": "effect on SIVagm infection", "setting": "[8]", "result": "favoured"}, {"measurement": "effect on SIVcpz infection", "setting": "[9]", "result": "favoured"}]}
{"sequence": "KEKSRLQGGVLVNEILNHMKRATQIPSYKKLIMY (Synthetic fragment of the PAP protein) [PAP(253-286)]", "values": [{"measurement": "luciferase activities increased compared to control cells containing no SEVI", "setting": "[1]", "result": "about 30 fold"}, {"measurement": "effect on HIV-1 infection (luciferase activities relative to no peptide)", "setting": "[1]", "result": "dose dependently enhanced HIV-1 infection"}, {"measurement": "effect on NL4-3 infection", "setting": "[2]", "result": "dose dependently promoted NL4-3 infection"}, {"measurement": "infection more efficient than control cells without peptide", "setting": "[10]; 93br025-9", "result": 1.9, "unit": "fold"}, {"measurement": "infection more efficient than control cells without peptide", "setting": "[10]; HIV-1 LAI", "result": 2.7, "unit": "fold"}, {"measurement": "maximum infectivity compared to infected controls without peptide", "setting": "[10]; higher concentrations, P51-S", "result": "3,045%"}]}
{"sequence": "KQKEKSRLQGGVLVNEILNHMKRATQIPSYKKLIMY (Synthetic fragment of the PAP protein) [PAP(251-286)]", "values": [{"measurement": "luciferase activities increased compared to control cells containing no SEVI", "setting": "[1]", "result": "about 30 fold"}, {"measurement": "effect on HIV-1 infection (luciferase activities relative to no peptide)", "setting": "[1]", "result": "dose dependently enhanced HIV-1 infection"}, {"measurement": "effect on NL4-3 infection", "setting": "[2]", "result": "dose dependently promoted NL4-3 infection"}, {"measurement": "detection of infection (β-galactosidase activities)", "setting": "[11]", "result": "readily detectable"}]}
{"sequence": "QKEKSRLQGGVLVNEILNHMKRATQIPSYKKLIMY (Synthetic fragment of the PAP protein) [PAP(252-286)]", "values": [{"measurement": "luciferase activities increased compared to control cells containing no SEVI", "setting": "[1]", "result": "about 30 fold"}, {"measurement": "effect on HIV-1 infection (luciferase activities relative to no peptide)", "setting": "[1]", "result": "dose dependently enhanced HIV-1 infection"}]}
{"sequence": "HKQKEKSRLQGGVLVNEILNHMKRATQIPSYKKLIMY [PAP(250-286)]", "values": [{"measurement": "cell viability (MTT)", "setting": "[12]", "result": "not affected"}]}
